pIC50: −log10 of the molar value. Like-named read-outs stand apart in the source and are kept apart here.
What was measured:
[1] = tested on: patients with relapsed or refractory advanced solid tumors; assay: phase 1 safety: adverse events (CTCAE v4.03), safety population; format: in vivo, human; conditions: for Fatal serious adverse event, MedDRA preferred term: patient
Method: Treatment was to be continued until disease progression, unacceptable toxicity, or the patient discontinued for any other reason, for a maximum duration of 12 months. Treatment could be continued beyond 12 months if it was determined that a patient would derive benefit from such continued therapy.
Adverse events were coded using the Medical Dictionary for Regulatory Activities (MedDRA) Version 19.0 and were graded according to the National Cancer Institute (NCI) Common Terminology Criteria (CTC) for adverse events (CTCAE) (Version 4.03). The assessment period for treatment emergent adverse events (TEAEs) was from the first dose of study treatment to 30 days after the last dose of study medication, or until the start of subsequent antineoplastic therapy, whichever occurred first. Following baseline evaluation, response was assessed by investigators every two cycles by computed tomography or magnetic resonance imaging according to Response Evaluation Criteria in Solid Tumors (version 1.1).
The safety population was defined as all patients who received any amount of tovorafenib. The DLT-evaluable population was defined as all patients in the dose escalation phase of the study who either experienced DLT during cycle 1 or who completed at least 75% of the planned doses and had sufficient follow-up data to allow the investigators and sponsor to determine whether DLT had occurred. […] The PK-evaluable population included all patients who had sufficient dosing data and concentration–time data to permit calculation of PK parameters.

[2] = tested on: patients with relapsed or refractory advanced solid tumors; assay: 3 + 3 dose escalation: DLT, MTD, RP2D; format: in vivo; conditions: for MTD: 28-day cycles; for recommended phase 2 dose (RP2D): human, in vivo
Excerpt: Prior to the initiation of QW dose escalation, the initial cycle length of 22 days was changed to 28 days by protocol amendment to improve clinical feasibility and better facilitate future combination studies. Patients enrolled prior to this protocol amendment in an ongoing Q2D dose escalation cohort continued on the 22-day cycle schedule until the cohort was full and all patients had been evaluated for dose-limiting toxicity (DLT). For both Q2D and QW regimens, dose escalation progressed according to the incidence of DLT in the first treatment cycle (either 22 days or 28 days). […] The MTD was defined as the highest dose level that generated DLT in 0/3 or 1/6 patients. On a case-by-case basis, the sponsor in collaboration with the principal investigators determined if intrapatient dose escalation was appropriate. Patients who had any dose reductions were not permitted to dose escalate.
The starting dose for the Q2D dose escalation phase was 20 mg, which was equivalent to one-tenth of the highest non-severely toxic dose (HNSTD) established in monkey toxicology studies. Dose escalation included planned dose levels of 40 mg, 80 mg, 135 mg, 200 mg, and 280 mg. […] In addition, a seventh Q2D cohort was to enroll sufficient patients (approximately 16) with any advanced solid tumor (excluding lymphoma) to ensure that 12 patients completed protocol-specified dosing and PK assessments scheduled during cycle 1.
The study was initially designed to investigate a Q2D schedule. Subsequently, a protocol amendment introduced planned QW dose escalation cohorts. The alteration in the dosing regimen from Q2D to QW was expected to reduce drug accumulation and increase Cmax while maintaining similar steady-state AUC. In addition, it was hypothesized that the increased Cmax might lead to a higher degree of pathway inhibition for a window of time within the dosing interval, without compromising overall dose density. Planned QW doses to be administered on days 1, 8, 15, and 22 of a 28-day cycle were a starting dose of 400 mg, followed by dose level increases of 200 mg (i.e., doses of 600 mg, 800 mg, and 1000 mg) in each subsequent cohort until the MTD/RP2D was reached.

[3] = tested on: pERK; assay: pERK expression in paired tumor biopsies (H-score, image analysis); format: in vivo, human; conditions: for median percentage decrease in pERK staining, day 21 vs baseline: Q2D expansion; for median percentage decrease in pERK expression, day 21 vs baseline: QW melanoma expansion cohort
Method: Based on tissue availability, pharmacodynamic assays included assessment of pERK expression levels in paired biopsy samples (baseline and day 21) from patients in the melanoma dose expansion cohorts. The level of staining was assessed both by a pathologist (semi-quantitative measurements according to H-score assessment) and by quantitated image analysis (Aperio, Leica Biosystems Nussloch, Germany).

[4] = tested on: wild-type BRAF; set-up: method as in doi:10.1016/S1359-6349(10)71810-3; conditions: preclinical studies; cited from earlier work
[5] = tested on: BRAF V600 mutant melanoma xenografts; set-up: method as in doi:10.1016/S1359-6349(10)71810-3; conditions: mice; tumors remaining sensitive to a second dosing cycle; cited from earlier work
[6] = set-up: method as in PMID 28082416; conditions: healthy brain and intracranial tumors (pediatric low-grade astrocytoma cells, KIAA1549-BRAF fusion); cited from earlier work
[7] = tested on: relapsed or refractory advanced solid tumors, melanoma; set-up: method as in ref 25 = [25]; 25. Medina T Barry E Govinda Raju S Blackman S Gonzalez R Prolonged complete response to the pan-RAF inhibitor DAY101 in a patient with an NRAS -mutated acral lentiginous melanoma Pigment Cell Melanom; conditions: one patient, NRAS-mutated melanoma, cited from earlier work
[8] = tested on: recurrent/progressive low-grade gliomas harboring MAPK pathway alterations; conditions: cited from earlier work
[9] = dose-escalation part, QW monotherapy, 8 patients with tumor RAF gene fusions

Structure (SMILES): C[C@@H](NC(=O)c1ncnc(N)c1Cl)c1ncc(C(=O)Nc2cc(C(F)(F)F)c(Cl)cn2)s1 [tovorafenib]
- Fatal serious adverse event, MedDRA preferred term ([1]; dose escalation, 20 mg Q2D, study day of death 23, Not related): Respiratory failure
- Fatal serious adverse event, MedDRA preferred term ([1]; dose escalation, 80 mg Q2D, study day of death 44, Not related): Colon cancer
- Fatal serious adverse event, MedDRA preferred term ([1]; dose escalation, 280 mg Q2D, study day of death 28, Related): Respiratory failure
- Fatal serious adverse event, MedDRA preferred term ([1]; dose escalation, 600 mg QW, study day of death 9, Not related): Colon cancer metastatic
- Fatal serious adverse event, MedDRA preferred term ([1]; dose escalation, 600 mg QW, study day of death 28, Not related): Pancreatic carcinoma
- Fatal serious adverse event, MedDRA preferred term ([1]; dose escalation, 800 mg QW, study day of death 31, Not related): Cardio-respiratory arrest
- on-study deaths ([1]; dose expansion phase (7%)): 7 patients
- Fatal serious adverse event, MedDRA preferred term ([1]; dose expansion, Q2D, study day of death 16, Not related): Small intestinal obstruction
- Fatal serious adverse event, MedDRA preferred term ([1]; dose expansion, Q2D, study day of death 26, Not related): Sepsis
- Fatal serious adverse event, MedDRA preferred term ([1]; dose expansion, Q2D, study day of death 43, Not related): Pneumonia
- Fatal serious adverse event, MedDRA preferred term ([1]; dose expansion, Q2D, study day of death 61, Not related): Metastatic malignant melanoma
- Fatal serious adverse event, MedDRA preferred term ([1]; dose expansion, Q2D, study day of death 67, Not related): Malignant melanoma
- Fatal serious adverse event, MedDRA preferred term ([1]; dose expansion, Q2D, study day of death 81, Not related): Metastatic malignant melanoma
- drug-related TEAE fatigue ([1]; human, in vivo): 42%
- drug-related TEAE maculo-papular rash ([1]; human, in vivo): 36%
- drug-related grade 3 or higher anemia ([1]; human, in vivo): 8%
- drug-related grade 3 or higher hyperbilirubinemia ([1]; human, in vivo): 10%
- drug-related grade 3 or higher maculo-papular rash ([1]; human, in vivo): 9%
- generalized rash leading to dose reduction ([1]; human, in vivo): 3%
- grade 3 or higher anemia ([1]; human, in vivo): 14%
- grade 3 or higher maculo-papular rash ([1]; human, in vivo): 8%
- maculo-papular rash leading to dose reduction ([1]; human, in vivo): 5%
- maculo-papular rash resulting in permanent discontinuation ([1]; human, in vivo): 3%
- sepsis resulting in permanent discontinuation ([1]; human, in vivo): 3%
- squamous cell carcinoma of skin reported as TEAE ([1]; human, in vivo): < 1%
- on-study deaths deemed treatment related ([1]; respiratory failure, 280 mg Q2D dose escalation cohort): one
- on-study deaths ([1]; whole study, 149 patients): 13
- MTD ([2]; Q2D): 200 mg
- MTD ([2]; QW): 600 mg
- recommended phase 2 dose (RP2D) [2]: 200 mg
- recommended phase 2 dose (RP2D) ([2]; 28 days): 600 mg
- median percentage decrease in pERK staining, day 21 vs baseline ([3]; H-score by a pathologist, BRAF mutation-positive previously treated cohort): ≥ 70%
- median percentage decrease in pERK staining, day 21 vs baseline ([3]; H-score by a pathologist, BRAF mutation-positive treatment-naïve cohort): ≥ 70%
- median percentage decrease in pERK staining, day 21 vs baseline ([3]; H-score by a pathologist, NRAS mutation-positive treatment-naïve cohort): ≥ 70%
- median percentage decrease in pERK expression, day 21 vs baseline ([3]; H-score by a pathologist): 12%
- median percentage decrease in pERK staining, day 21 vs baseline ([3]; quantitated image analysis, BRAF mutation-positive previously treated cohort): ≥ 70%
- median percentage decrease in pERK staining, day 21 vs baseline ([3]; quantitated image analysis, NRAS mutation-positive treatment-naïve cohort): ≥ 70%
- median percentage decrease in pERK expression, day 21 vs baseline ([3]; quantitated image analysis): 8%
- pIC50 [4]: 8.00
- effect on large, established xenograft tumors [5]: caused tumor regression
- blood–brain barrier penetration [6]: good blood–brain barrier penetration
- treatment time until complete response was reported ([7]; single patient IND after the study): 7 months
- duration for which complete response has been sustained ([7]; single patient IND, continued treatment): 8 years
- complete responses [8, 9]: 2 patients
- partial responses [8, 9]: 3 patients
- prolonged stable disease [8, 9]: two
- patients with clinically meaningful activity ([8]; phase 1b part, 24 of 35 patients with MAPK pathway-altered cancers): 69%
- complete responses ([8]; phase 1b part, 35 patients): 2
- partial responses ([8]; phase 1b part, 35 patients): 7
- stable diseases ([8]; phase 1b part, 35 patients): 15

From paper PMC10261210 (Cancer Chemotherapy and Pharmacology, 2023)
